This assay has as its target human GLP1R (Homo sapiens (Human), UniProt P43220). Kind of assay: In vitro cAMP signal activation in human GLP1R stably-expressing cell line (hGLP1R-HEK293). Format: cell-based. The conditions noted are these: cAMP concentration in hGLP1R-HEK293; 100% = 1 nM human GLP-1 (7-37). How it is done:
<Test Example 1> Measurement of In Vitro cAMP Signal Activation of a Compound in Human GLP1R
A human GLP1R stably-expressing cell line (hGLP1R-HEK293) was used in the experiment. The cells were cultured in a Dulbecco's modified Eagle's medium (DMEM) containing 10% fetal bovine serum (Sigma-Aldrich), 100 units/mL penicillin G and 100 μg/mL streptomycin sulfate (Gibco), and 500 μg/mL Geneticin (Gibco), under a moist atmosphere containing 5% CO2, at 37° C.
hGLP1R-HEK293 was seeded in 96 well plates at 2.0×10^4 cells per well and cultured over night. The medium for culturing the cells was changed to 50 μL of Medium A (DMEM, 20 mM HEPES, 0.05% BSA, 0.5 mM 3-isobutyl-1-methylxanthine) the next day, and the cells were incubated at 37° C. for 30 min. Then, 50 μL of Medium B (DMEM, 20 mM HEPES, 0.05% BSA, 0.5 mM 3-isobutyl-1-methylxanthine) containing GLP-1 or the compound was added, and the cells were incubated at 37° C. for an additional 30 min. Then, 100 μL of Assay lysis buffer (Applied Bioscience) was added, and the cells were incubated at 37° C. for 30 min. The cAMP concentration was quantified using cAMP HiRange kit (Cisbio Bioassays).
By setting the cAMP concentration when the human GLP-1 (7-37) was put into action at a concentration of 1 nM to 100%, the cAMP concentration of each well was converted to a reaction rate (%).

human GLP1R, sequence (P43220 24-463): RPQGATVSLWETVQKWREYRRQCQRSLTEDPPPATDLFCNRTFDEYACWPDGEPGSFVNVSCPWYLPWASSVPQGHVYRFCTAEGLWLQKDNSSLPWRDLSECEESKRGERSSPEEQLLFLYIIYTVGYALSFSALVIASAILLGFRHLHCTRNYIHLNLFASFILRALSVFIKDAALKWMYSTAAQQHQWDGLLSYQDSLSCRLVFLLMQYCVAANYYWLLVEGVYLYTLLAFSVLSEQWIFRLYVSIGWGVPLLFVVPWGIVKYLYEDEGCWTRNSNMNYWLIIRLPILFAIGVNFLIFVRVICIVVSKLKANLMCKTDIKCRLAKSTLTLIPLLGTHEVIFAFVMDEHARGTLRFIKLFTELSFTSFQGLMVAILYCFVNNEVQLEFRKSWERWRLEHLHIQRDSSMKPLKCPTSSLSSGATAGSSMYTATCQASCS

Regarding `Cc1cc(-n2nc3c(c2-n2ccn(-c4ccc5c(cnn5[C@@H]5CCOC5)c4)c2=O)[C@H](C)N(C(=O)c2cc4cc(C5CCOCC5)cc(F)c4n2[C@@]2(c4noc(=O)[nH]4)C[C@@H]2C)CC3)cc(C)c1F` [compound 64], the EC50 (usually the midpoint of the concentration-response curve) amounted to 2 nM.

In turn, `CC[C@H]1C[C@@H](c2ccc3c(c2)cc(C(=O)N2CCc4nn(-c5cc(C)c(F)c(C)c5)c(-n5ccn(-c6ccc7c(cnn7C)c6)c5=O)c4C2)n3[C@@]2(c3noc(=O)[nH]3)C[C@@H]2C)CCO1` [compound 77] came in with an EC50 of 1.4 nM. On to `Cc1cc(-n2nc3c(c2-n2ccn(-c4cc5cnn(C)c5cc4F)c2=O)[C@H](C)N(C(=O)c2cc4cc([C@H]5CCOC(C)(C)C5)ccc4n2[C@@]2(c4noc(=O)[nH]4)C[C@@H]2C)CC3)cc(C)c1F` [compound 70], for which the EC50 is 1.5 nM.

For the compound `Cc1cc(-n2nc3c(c2-n2ccn(-c4ccc5c(cnn5CC(F)(F)F)c4F)c2=O)[C@H](C)N(C(=O)c2cc4cc(C5CCOCC5)ccc4n2[C@@]2(c4noc(=O)[nH]4)C[C@@H]2C)CC3)ccc1F` [Example 46, 3-[(1S,2S)-1-[2-[(4S)-2-(4-fluoro-3-methylphenyl)-3-[3-[4-fluoro-1-(2,2,2-trifluoroethyl)indazol-5-yl]-2-oxoimidazol-1-yl]-4-methyl-6,7-dihydro-4H-pyrazolo[4,3-c]pyridine-5-carbonyl]-5-(oxan-4-yl)indol-1-yl]-2-methylcyclopropyl]-4H-1,2,4-oxadiazol-5-one], the response was half-maximal at 3.3 nM (EC50). The compound `COc1nccc(-c2ccc3c(c2)cc(C(=O)N2CCc4nn(-c5cc(C)c(F)c(C)c5)c(-n5ccn(-c6ccc7c(cnn7C)c6)c5=O)c4[C@@H]2C)n3[C@@]2(c3noc(=O)[nH]3)C[C@@H]2C)c1C` [Example 12, 3-[(1S,2S)-1-[2-[(4S)-2-(4-fluoro-3,5-dimethylphenyl)-4-methyl-3-[3-(1-methylindazol-5-yl)-2-oxoimidazol-1-yl]-6,7-dihydro-4H-pyrazolo[4,3-c]pyridine-5-carbonyl]-5-(2-methoxy-3-methylpyridin-4-yl)indol-1-yl]-2-methylcyclopropyl]-4H-1,2,4-oxadiazol-5-one] had a 50% effective concentration (EC50) of 2.7 nM. `Cc1cc(-n2nc3c(c2-n2ccn(-c4ccc5c(cnn5C)c4F)c2=O)[C@H](C)N(C(=O)c2cc4cc([C@H]5CCO[C@@H](C)C5)ccc4n2[C@@]2(c4noc(=O)[nH]4)C[C@@H]2C)CC3)cc(C)c1F` [Example 41, 3-[(1S,2S)-1-[2-[(4S)-2-(4-fluoro-3,5-dimethylphenyl)-3-[3-(4-fluoro-1-methylindazol-5-yl)-2-oxoimidazol-1-yl]-4-methyl-6,7-dihydro-4H-pyrazolo[4,3-c]pyridine-5-carbonyl]-5-[(2S,4S)-2-methyloxan-4-yl]indol-1-yl]-2-methylcyclopropyl]-4H-1,2,4-oxadiazol-5-one] registered an EC50 of 2.4 nM. Under `Cc1cc(-n2ccn(-c3c4c(nn3-c3cc(C)c(F)c(C)c3)CCN(C(=O)c3cc5cc(C6CCOCC6)ccc5n3[C@@]3(c5noc(=O)[nH]5)C[C@@H]3C)[C@H]4C)c2=O)ccc1-c1cc(N(C)C)ncn1` [Example 25, 3-[(1S,2S)-1-[2-[(4S)-3-[3-[4-[6-(dimethylamino)pyrimidin-4-yl]-3-methylphenyl]-2-oxoimidazol-1-yl]-2-(4-fluoro-3,5-dimethylphenyl)-4-methyl-6,7-dihydro-4H-pyrazolo[4,3-c]pyridine-5-carbonyl]-5-(oxan-4-yl)indol-1-yl]-2-methylcyclopropyl]-4H-1,2,4-oxadiazol-5-one] stands 4 nM; under `Cc1cc(-n2nc3c(c2-n2ccn(-c4ccc5c(c4)CC(=O)N(C)C5)c2=O)[C@H](C)N(C(=O)c2cc4cc([C@H]5CCOC(C)(C)C5)ccc4n2[C@@]2(c4noc(=O)[nH]4)C[C@@H]2C)CC3)cc(C)c1F` [Example 39, 3-[(1S,2S)-1-[5-[(4S)-2,2-dimethyloxan-4-yl]-2-[(4S)-2-(4-fluoro-3,5-dimethylphenyl)-4-methyl-3-[3-(2-methyl-3-oxo-1,4-dihydroisoquinolin-6-yl)-2-oxoimidazol-1-yl]-6,7-dihydro-4H-pyrazolo[4,3-c]pyridine-5-carbonyl]indol-1-yl]-2-methylcyclopropyl]-4H-1,2,4-oxadiazol-5-one], 1 nM. The same measure for `Cc1cc(-n2nc3c(c2-n2ccn(-c4ccc5c(cnn5C)c4F)c2=O)[C@H](C)N(C(=O)c2cc4cc(C5CCOCC5)ccc4n2[C@@]2(c4noc(=O)[nH]4)C[C@@H]2C)CC3)cc(C)c1F` [Example 23, 3-[(1S,2S)-1-[2-[(4S)-2-(4-fluoro-3,5-dimethylphenyl)-3-[3-(4-fluoro-1-methylindazol-5-yl)-2-oxoimidazol-1-yl]-4-methyl-6,7-dihydro-4H-pyrazolo[4,3-c]pyridine-5-carbonyl]-5-(oxan-4-yl)indol-1-yl]-2-methylcyclopropyl]-4H-1,2,4-oxadiazol-5-one]: 1.8 nM.

`COCCn1ncc2c(F)c(-n3ccn(-c4c5c(nn4-c4ccc(F)c(C)c4)CCN(C(=O)c4cc6cc([C@H]7CCOC(C)(C)C7)ccc6n4[C@@]4(c6noc(=O)[nH]6)C[C@@H]4C)[C@H]5C)c3=O)ccc21` [Example 48, 3-[(1S,2S)-1-[5-[(4S)-2,2-dimethyloxan-4-yl]-2-[(4S)-3-[3-[4-fluoro-1-(2-methoxyethyl)indazol-5-yl]-2-oxoimidazol-1-yl]-2-(4-fluoro-3-methylphenyl)-4-methyl-6,7-dihydro-4H-pyrazolo[4,3-c]pyridine-5-carbonyl]indol-1-yl]-2-methylcyclopropyl]-4H-1,2,4-oxadiazol-5-one] showed an EC50 of 3 nM. Turning to `CC[C@H]1CN(c2ccc3c(c2)cc(C(=O)N2CCc4nn(-c5cc(C)c(F)c(C)c5)c(-n5ccn(-c6ccc7c(cnn7C)c6)c5=O)c4C2)n3[C@@]2(c3noc(=O)[nH]3)C[C@@H]2C)CCO1` [compound 53], the EC50 turned out to be 2.9 nM.

As to `CCc1nccc(-c2ccc3c(c2)cc(C(=O)N2CCc4nn(-c5cc(C)c(F)c(C)c5)c(-n5ccn(-c6ccc7c(C)nsc7c6)c5=O)c4C2)n3[C@@]2(c3noc(=O)[nH]3)C[C@@H]2C)c1C` [Example 3], the EC50 is 6.1 nM. Regarding `Cc1cc(-n2ccn(-c3c4c(nn3-c3cc(C)c(F)c(C)c3)CCN(C(=O)c3cc5cc(C6CCOCC6)ccc5n3[C@@]3(c5noc(=O)[nH]5)C[C@@H]3C)[C@H]4C)c2=O)ccc1OCCO` [Example 19, 3-[(1S,2S)-1-[2-[(4S)-2-(4-fluoro-3,5-dimethylphenyl)-3-[3-[4-(2-hydroxyethoxy)-3-methylphenyl]-2-oxoimidazol-1-yl]-4-methyl-6,7-dihydro-4H-pyrazolo[4,3-c]pyridine-5-carbonyl]-5-(oxan-4-yl)indol-1-yl]-2-methylcyclopropyl]-4H-1,2,4-oxadiazol-5-one], the EC50 turned out to be 1.3 nM.

Regarding `Cc1cc(-n2nc3c(c2-n2ccn(-c4ccc5c(cnn5CC5(C)COC5)c4F)c2=O)[C@H](C)N(C(=O)c2cc4cc([C@H]5CCOC(C)(C)C5)ccc4n2[C@@]2(c4noc(=O)[nH]4)C[C@@H]2C)CC3)cc(C)c1F` [Example 37, 3-[(1S,2S)-1-[5-[(4S)-2,2-dimethyloxan-4-yl]-2-[(4S)-2-(4-fluoro-3,5-dimethylphenyl)-3-[3-[4-fluoro-1-[(3-methyloxetan-3-yl)methyl]indazol-5-yl]-2-oxoimidazol-1-yl]-4-methyl-6,7-dihydro-4H-pyrazolo[4,3-c]pyridine-5-carbonyl]indol-1-yl]-2-methylcyclopropyl]-4H-1,2,4-oxadiazol-5-one], the midpoint of the response, the EC50, lay at 2.5 nM.
